From US11219625B2, “Inhibitors of N-linked glycosylation and methods using same” (YALE UNIVERSITY, priority 2015, dated 2022)

How the values were obtained:
Format in all cases: cell-based
A549 cells [1] = experiment: Apoptosis by flow cytometry (Annexin-V, 7-AAD), A549; settings: A549, NGI-1 10 μM for 2 or 5 days, or Tn 1 μM
Method: (§1) Analysis of apoptosis susceptibility in A549 and PC9 NSCLC cell lines followed treatment with NGI-1 10 μM or Tn 1 μM for 2 days was done by flow cytometry after staining the cells with Annexin-V (early apoptosis) and 7-AAD (viability dye). […] FIG. 9C: Western blot of BIP protein for A549 and PC9 cells after treatment with 10 μM NGI-1 for 6, 12 or 24 h. The expression of GAPDH was used as a loading control.

PC9 cells [2] = experiment: Apoptosis by flow cytometry (Annexin-V, 7-AAD), PC9; settings: PC9, NGI-1 10 μM for 2 or 5 days, or Tn 1 μM
Method: as §1

A549 cells [3] = experiment: MTT proliferation assay, A549; settings: A549, 10 μM NGI-1 or 1 μM tunicamycin
Method: (§2) FIGS. 4A-4H illustrate the finding that NGI-1 blocks RTK driven proliferation. FIG. 4A illustrates western blot analysis of EGFR phosphorylation (Y1173) and gel mobility in PC9 (EGFR-mutant) and A549 (k-ras mutant) NSCLC cells after 10 μM NGI-1 treatment for 24 h. […] Actin expression was used as a control for protein loading. FIG. 4B illustrates MTT assays results of PC9 following treatment with 10 μM NGI-1 or 1 μM tunicamycin for a total of 5 d. Relative proliferation id reported in fold increase from day 0. FIG. 4C illustrates MTT assays results of A549 following treatment with 10 μM NGI-1 or 1 μM tunicamycin for a total of 5 d. Relative proliferation id reported in fold increase from day 0. FIG. 4D illustrates protein phosphorylation profiles of PC9 cells analyzed by phospho-protein array to assess the response of PC9 to 10 μM NGI-1 for 24 h. FIG. 4E illustrates protein phosphorylation profiles of A549 cells analyzed by phospho-protein array to assess the response of A549 to 10 μM NGI-1 for 24 h. […]
(§3) Growth rates were determined by CellTiter 96 NonRadioactive Cell Proliferation Assay (Promega; Madison, Wis. USA) according to the manufacturer's directions. […] Cell numbers were estimated after 0, 3, and 5 days by adding MTT [(3-(4,5-Dimethylthiazol-2-yl)-2,5-diphenyltetrazolium bromide] reagent to the wells 4 hours before taking the spectrophotometric reading (absorbance at 570 nm).

PC9 cells [4] = experiment: MTT proliferation assay, PC9; settings: PC9, 1 μM tunicamycin
Method: as §2, §3

[5] = tested on: lipid linked oligosaccharides (LLOs); experiment: FACE analysis of lipid linked oligosaccharides; settings: FACE, FIG. 2B
Method: Fluorophore assisted carbohydrate electrophoresis (FACE) was performed as previously described (Gao, et al., Glycobiology 2002, 12, 353-360; Gao, et al., J Biol Chem 2005, 280, 17901-17909). Control (Ac-Gln-Tyr-Thr-CONH2) and acceptor (Ac-Asn-Tyr-Thr-CONH2) peptides were used for permeabilized cell experiments. Metabolic labeling of Hela cells, transfection of prosaposin (pSAP) and steroid hormone binding globulin (SHBG) vectors, and knockdown of SIT3A and STT3B to monitor N-linked glycosylation knockdown were performed as described (Shrimal, et al., J Cell Biol 2013, 201, 81-95). Western blot analysis was performed as previously described (Bennett, et al., Transl Oncol 2013, 6, 382-391). The following primary antibodies were used: rabbit anti-EGFR (sc-03; Santa Cruz Biotechnology; 1:1000), rabbit anti-phospho (Tyr1173) EGF Receptor (Cell Signaling; 1:1000), rabbit anti-p21 Waf1/Cip1 (12D1; Cell Signaling; 1:1000), rabbit anti-Cyclin D1 (Cell Signaling; 1:1000), mouse anti-β-Actin (8H10D10; Cell Signaling; 1:1000). For phospho-protein array analysis, PC9 and A549 cells were cultured in 6-well plates in serum-containing medium and treated with or without 10 μM NGI-1 for 24 hours. […]

Q: For tunicamycin [reference compound], which induction of apoptosis (A549 cells [1]) is on record?
A: apoptosis was activated

Q: What about the induction of apoptosis (PC9 cells [2]) of the same substance?
A: apoptosis was activated

Q: And the “effect on proliferation, MTT” value (A549 cells [3])?
A: immediately blocks proliferation in both cell lines

Q: What about the “effect on proliferation, MTT” value (PC9 cells [4]) of the same substance?
A: immediately blocks proliferation in both cell lines

Q: And the “effect on LLO production” value [5]?
A: blocked all LLO production
